{"source": "patent US20060234919A1", "about": "“Use” (priority 2001, published 2006)", "key": {"xylene-induced cystitis": {"system": "xylene-induced cystitis", "experiment": "xylene-induced cystitis, plasma protein extravasation (Evans blue)", "format": "in vivo, rat", "details": "1 mg/ml s.c. 1 h before xylene; 2 h after instillation; xylene alone 13.21±3.68; p<0.01", "description": "Rats were anaesthetised with pentobarbital sodium and phenobarbitone sodium as above. Following i. v. injection of Evans blue (20 mg/kg, i. v.), the urinary bladder was cannulated via the urethra using a polyethylene tubing and […] xylene (30% v/v in silicone oil) were instilled within 10 s. The cannula was then left in place for a further period of 10 s. Two hours later, the animals were injected with an overdose of pentobarbitone sodium and the bladder was removed. Evans blue was extracted by incubation of the tissue in 4 ml formamide for 24 h at 55° C. for subsequent photometric measurements at 620 nm.\nPlasma protein extravasation in the urinary bladder of anaesthetised rats was made 2 h after intravesical instillation of 30% (v/v) xylene […]. Control animals were treated with appropriate volumes of the vehicles ([…] silicone oil or 4 ml/kg 154 mmol/l NaCl solution, respectively). Oxytocin (1 mg/ml) was injected s. c. 1 h before administration of xylene or cyclophosphamide while control rats received DMSO (0.5 ml/kg, s. c.). Plasma protein extravasation is given as total tissue content of the protein marker, Evans blue, given i. v. (20 mg/kg) 5 min prior to the induction of cystitis.\nOxytocin was dissolved and diluted in DMSO for all experiments involving s. c. injection in volumes of 1.0 ml/kg. […]"}, "[1]": {"system": "magnesium deficiency-induced dermatosis", "experiment": "atopic dermatitis-like symptoms in hypomagnesaemic hairless rats", "format": "in vivo, rat", "description": "Male hairless rats (Ico:OFA hr/hr) were obtained from Iffa Credo (Lyon, France) immediately after weaning and housed under conventional standardised conditions in polycarbonate cages with wood chip bedding in a room with 12:12 h light/dark cycle, 24±1° C. The rats were fed with a standard maintenance diet low in magnesium (Altromin, Lage, Germany, C10350; 0.012% Mg^2+/kg dry matter) and demonised water was supplied ad libitum. This diet rendered the animals hypomagnesaemic. Magnesium (mean±SD, mmol/l) in serum fell to 0.58±0.23 on day 4, 0.36±0.18 on day 10, and to the lowest value (0.24±0.11) on day 15 on the diet. The lowest concentration was maintained up to the termination of the experiments. Under these conditions, the onset of clinical signs was after 6-8 days on the diet. The first signs were pronounced reddening and swelling of both ear lobes in all animals. […] Simultaneously with the onset of erythema, the rats began to scratch intensively and bite themselves, causing erosions and excoriations. Head, trunk, paws and tail were uniformly and intensely reddened within 2 days after the onset of signs. This stage was followed by the development of small papules and irregularly shaped plaques 1-2 cm in diameter on the trunk. The skin lesions and the signs of pruritus were most pronounced after 10-11 days on the diet, and were then constant for approximately 4 days. This acute stage was then followed by a decrease in general erythema and, subsequently, by the remission of papules and plaques within approximately 5 days. However, complete clearance was not observed.\nDrug, formulations and treatment regimens: For topical administration, the oxytocin was dissolved in ethanol/propylene glycol (1 mg/ml).\nThe treatment was performed either unilaterally with the active drug on the right ear and with the vehicle contralaterally or bilaterally on both ears with oxytocin and vehicle, respectively. Therapeutic treatment was started immediately after clinical signs had fully developed and was given twice daily for 3 consecutive days. Prophylactic application was started on day 3 on the diet (i.e. 3-5 days before the expected onset of signs) and was given once daily for 7 days until day 9. Active drug or vehicle was applied in volumes of 20 μl to both sides of the ears.\nFor assessment of the therapeutic efficacy of oxytocin the animals were examined clinically once daily during the treatment period and for a further 7 days (topical treatment). Prophylactic activity was determined by daily examinations performed during the treatment period and a further 9 days. A score index (scale 0-3) for ear lesions was applied: 0, no change; 1, slight edematous, erythematous swelling; 2, moderate edematous, erythematous swelling; 3, pronounced edematous, erythematous swelling. In all experiments, the skin lesions were evaluated clinically by a single investigator unaware of the treatment allocation."}}, "data": [{"substance": "Oxytocin", "values": [{"measurement": "plasma protein extravasation, total Evans blue content of the urinary bladder", "setting": "xylene-induced cystitis", "result": "5.14 ± 2.58", "unit": "mg"}, {"measurement": "sum of daily scores (ear lesions, scale 0-3) from day 3 to 10", "setting": "[1]; prophylactic topical, once daily day 3 to 9, vehicle-treated ears 9.2±0.7", "result": "2.4±1.1"}, {"measurement": "time after the last dose until which signs remained suppressed", "setting": "[1]; therapeutic, bilateral application, signs reappeared 4 or 5 days after the last dose", "result": 3, "unit": "days"}, {"measurement": "local erythematous swelling of the ears", "setting": "[1]; therapeutic, bilateral application, within 1 day after the first dose", "result": "significantly inhibited"}, {"measurement": "local erythematous swelling of the ear", "setting": "[1]; therapeutic, epicutaneously on one ear, 1 mg/ml, within 1 day after the start of treatment", "result": "significantly reduced local erythematous swelling"}, {"measurement": "systemic effect (distant erythematous lesions on the trunk and pruritus)", "setting": "[1]; topical dose applied on the ears", "result": "no systemic effect"}]}]}
